Reference: EP0187355A1, “Process for preparing beta-lactam antibiotics” (E.R. Squibb & Sons, Inc., priority 1981, dated 1982)
Structures can show the parent of a compound that is named as a salt.

Experiments:
Assay in all cases: MIC, agar dilution
Format in all cases: cell-based
[1] = test system: Acinetobacter calcoaceticus, 8333; conditions: Acinetobacter calcoaceticus, 8333, 18 h, K-10 agar, 10^4 CFU, 37°C, read-out: M.I.C.
Description: (§1) The following methodology is used to determine the minimum inhibitory concentration (hereinafter referred to as MIC) of the […] of this invention.
(§2) The test organisms are grown in approximately 15-20 ml of Antibiotic Assay broth (Difco) by inoculating (in tubes) the broth with a loopful of the organism from a BHI (Difco) agar slant. The inoculated tubes are incubated at 37°C for 18 to 20 hours. These cultures are assumed to contain 10^9 colony forming units (hereinafter CFU) per milliliter. The cultures are diluted 1:100 to give a final inoculum level of 10^4 CFU; dilutions are made with K-10 broth^*.
(§3) The compounds are dissolved in the appropriate diluent at a concentration of 1000 µg/ml. Twofold dilutions are made in K-10 broth resulting in a range from 1000 µg/ml to 0.5 µg/ml. 1.5 ml of each dilution is placed into individual square petri dishes to which 13.5 ml of K-10 agar^** is added. The final drug concentration in the agar ranges from 100 µg/ml to 0.05 µg/ml. Organism growth control plates containing agar only are prepared and inoculated before and after the test plates. The organisms are applied to the agar surface of each plate with the Denley Multipoint Inoculator (which delivers approximately 0.001 ml of each organism) resulting in a final inoculum level of 10^4 CFU on the agar surface.
(§4) The plates are incubated at 37 °C for 18 hours and the MIC's are determined. The MIC is the lowest concentration of compound inhibiting growth of the organism.
(§5) The tables that follow are tabulated results obtained when the B-lactams of this invention are tested against various organisms. The number following each organism refers to the number of the organism in the collection of E. R. Squibb & Sons,.Inc., Princeton, New Jersey. […] The symbol "N.T." means not tested.

[2] = test system: Citrobacter freundii, 9518; conditions: K-10 agar, 10^4 CFU, 37°C, 18 hours, read-out: M.I.C.
Description: as §1, §2, §3, §4, §5

[3] = test system: Enterobacter aerogenes, 10078; conditions: Klebsiella aerogenes, 10078, 18 h, Enterobacter aerogenes, 10078; K-10 agar, 10^4 CFU, 37°C, 18 hours; read-out: M.I.C.
Description: as §1, §2, §3, §4, §5

Escherichia coli, 10857 = conditions: Escherichia coli, 10857, 18 h, K-10 agar, 10^4 CFU, 37°C
Description: as §1, §2, §3, §4, §5

Escherichia coli, 10896 = conditions: K-10 agar, 10^4 CFU, 37°C, 18 hours
Description: as §1, §2, §3, §4, §5

Escherichia coli, 10909 = conditions: K-10 agar, 10^4 CFU, 37°C, 18 hours
Description: as §1, §2, §3, §4, §5

Escherichia coli, 8294 = conditions: Escherichia coli, 8294, 18 h, K-10 agar, 10^4 CFU, 37°C
Description: as §1, §2, §3, §4, §5

[4] = test system: Klebsiella aerogenes, 10440; conditions: K-10 agar, 10^4 CFU, 37°C, 18 hours, read-out: M.I.C.
Description: as §1, §2, §3, §4, §5

[5] = test system: Klebsiella pneumoniae, 9527; conditions: Klebsiella pneumoniae, 9527, 18 h, K-10 agar, 10^4 CFU, 37°C, read-out: M.I.C.
Description: as §1, §2, §3, §4, §5

Proteus mirabilis, 3855 = conditions: Proteus mirabilis, 3855, 18 h, K-10 agar, 10^4 CFU, 37°C, read-out: M.I.C.
Description: as §1, §2, §3, §4, §5

Proteus rettgeri, 8479 = conditions: Providencia rettgeri, K-10 agar, 10^4 CFU, 37°C, 18 hours, read-out: M.I.C.
Description: as §1, §2, §3, §4, §5

Proteus vulgaris, 9416 = conditions: K-10 agar, 10^4 CFU, 37°C, 18 hours, read-out: M.I.C.
Description: as §1, §2, §3, §4, §5

[6] = test system: Pseudomonas aeruginosa, 8329; conditions: K-10 agar, 10^4 CFU, 37°C, 18 hours, read-out: M.I.C.
Description: as §1, §2, §3, §4, §5

[7] = test system: Pseudomonas aeruginosa, 9545; conditions: Pseudomonas aeruginosa, 9545, 18 h, K-10 agar, 10^4 CFU, 37°C, read-out: M.I.C.
Description: as §1, §2, §3, §4, §5

Salmonella typhosa, 1195 = conditions: Salmonella enterica, TYPHOSA, 18 h, K-10 agar, 10^4 CFU, 37°C
Description: as §1, §2, §3, §4, §5

[8] = test system: Serratia marcescens, 9783; conditions: K-10 agar, 10^4 CFU, 37°C; for MIC: Serratia marcescens, 9783, 18 h, read-out: M.I.C.
Description: as §1, §2, §3, §4, §5

Shigella sonnei, 8449 = conditions: Shigella sonnei, 8449, 18 h, K-10 agar, 10^4 CFU, 37°C
Description: as §1, §2, §3, §4, §5

[9] = test system: Staphylococcus aureus, 10165; conditions: Staphylococcus aureus, 10165; K-10 agar, 10^4 CFU, 37°C, 18 hours; read-out: M.I.C.
Description: as §1, §2, §3, §4, §5

[10] = test system: Staphylococcus aureus, 1276; conditions: Staphylococcus aureus, 1276; K-10 agar, 10^4 CFU, 37°C, 18 hours; read-out: M.I.C.
Description: as §1, §2, §3, §4, §5

[11] = test system: Staphylococcus aureus, 2399; conditions: Staphylococcus aureus, 2399, 18 h, Staphylococcus aureus, 2399; K-10 agar, 10^4 CFU, 37°C, 18 hours; read-out: M.I.C.
Description: as §1, §2, §3, §4, §5

[12] = test system: Staphylococcus aureus, 2400; conditions: Staphylococcus aureus, 2400; K-10 agar, 10^4 CFU, 37°C, 18 hours; read-out: M.I.C.
Description: as §1, §2, §3, §4, §5

[13] = test system: Streptococcus faecalis, 9011; conditions: Enterococcus faecalis; Streptococcus faecalis, 9011; K-10 agar, 10^4 CFU, 37°C, 18 hours; read-out: M.I.C.
Description: as §1, §2, §3, §4, §5

[14] = test system: Enterobacter cloacae, 8236; conditions: Enterobacter cloacae, 8236, 18 h, K-10 agar, 10^4 CFU, 37°C
Description: as §1, §2, §3
(§6) The MIC is the lowest concentration of compound inhibiting growth of the organism.
(§7) The number following each organism refers to the number of the organism in the collection of E. R. Squibb & Sons,.Inc., Princeton, New Jersey. […] The symbol "N.T." means not tested.

Micrococcus luteus, 2495 = conditions: K-10 agar, 10^4 CFU, 37°C; for MIC: Micrococcus luteus, 2495, 18 h, read-out: M.I.C.
Description: as §1, §2, §3, §6, §7

[15] = test system: Streptococcus agalactiae, 9287; conditions: Streptococcus agalactiae, 9287, 18 h, K-10 agar, 10^4 CFU, 37°C, read-out: M.I.C.
Description: as §1, §2, §3, §6, §7

Row | SMILES | MIC [1] [mg/L] | MIC [2] [mg/L] | MIC [3] [mg/L] | MIC (Escherichia coli, 10857) [mg/L] | MIC (Escherichia coli, 10896) [mg/L] | MIC (Escherichia coli, 10909) [mg/L] | MIC (Escherichia coli, 8294) [mg/L] | MIC [4] [mg/L] | MIC [5] [mg/L] | MIC (Proteus mirabilis, 3855) [mg/L] | MIC (Proteus rettgeri, 8479) [mg/L] | MIC (Proteus vulgaris, 9416) [mg/L] | MIC [6] [mg/L] | MIC [7] [mg/L] | MIC (Salmonella typhosa, 1195) [mg/L] | MIC (Shigella sonnei, 8449) [mg/L] | MIC [9] [mg/L] | MIC [10] [mg/L] | MIC [11] [mg/L] | MIC [12] [mg/L] | also measured
1 | C[C@H]1[C@H](NC(=O)OCc2ccccc2)C(=O)N1S(=O)(=O)O [Example 2, (3S-trans)-4-Methyl-2-oxo-3-[[(phenylmethoxy)carbonyl]-amino]-1-azetidinesulfonic acid, potassium salt] | > 100 | > 100 | > 100 | > 100 | > 100 | > 100 | > 100 | > 100 | > 100 | > 100 | > 100 | > 100 | > 100 | > 100 | > 100 | > 100 | > 100 | 100 | 100 | 100 | MIC [8]: > 100 mg/L; MIC [13]: > 100 mg/L; MIC [14]: > 100 mg/L; MIC (Micrococcus luteus, 2495): 100 mg/L; MIC [15]: 100 mg/L
2 | C[C@H]1[C@H](NC(=O)Cc2ccccc2)C(=O)N1S(=O)(=O)O [Example 3, (3S-trans)-4-Methyl-2-oxo-3-[(phenylacetyl)amino]-1-azetidinesulfonic acid, potassium salt] | > 100 | 100 | > 100 | 50 | 50 | 25 | 100 | 100 | 100 | 100 | 50 | 100 | > 100 | 50 | 50 | 50 | 100 | 50 | 50 | 50 | MIC [8]: 50 mg/L; MIC [13]: > 100 mg/L; MIC [14]: > 100 mg/L; MIC (Micrococcus luteus, 2495): 25 mg/L; MIC [15]: 25 mg/L
3 | CON=C(C(=O)NC1C(=O)N(S(=O)(=O)O)C1C)c1csc(N)n1 (stereo not drawn) [Example 5, [3S-[3α(Z),4β]]-3-[[2-Amino-4-thiazolyl) (methoxyimino)-acetyl]amino]-4-methyl-2-oxo-1-azetidinesulfonic acid, potassium salt] | 12.5 | 0.1 | 0.4 | < 0.05 | 0.1 | < 0.05 | 0.1 | 0.2 | 0.1 | 0.1 | < 0.05 | < 0.05 | 100 | 0.8 | < 0.05 | 0.1 | > 100 | 100 | 100 | 50 | M.I.C. ([8]; 18 hours, potassium salt): 0.8 µg/mL; MIC [13]: > 100 mg/L; MIC [14]: 0.2 mg/L; M.I.C. (Micrococcus luteus, 2495; 18 hours, potassium salt): 3.1 µg/mL; MIC [15]: 3.1 mg/L
